{"source": "patent US20150253327A1", "about": "“DIAGNOSIS AND TREATMENT OF ASPIRIN-EXACERBATED RESPIRATORY DISEASE (AERD)” (BRIGHAM AND WOMEN'S HOSPITAL, INC., priority 2012, published 2015)", "key": {"[1]": {"details": "extracellular milieu (ref 43); cited from earlier work"}, "mice": {"test_system": "mice", "details": "pathway depends on platelet associated P2Y12 receptors (ref 49); cited from earlier work"}, "human platelets": {"test_system": "human platelets", "details": "exogenous cysLTs; inventors' previous work (ref 49); cited from earlier work"}, "[2]": {"test_system": "fMLP-stimulated granulocytes", "assay": "Suppression of fMLP-induced LTB4 generation by granulocytes from subjects with AERD", "format": "cell-based, human", "details": "pretreatment of granulocytes from subjects with AERD; FIG. 12B-12C", "description": "FIG. 12A depicts a graph of percentages of platelet-adherent neutrophils (determined by CD61^+ expression) in whole blood from eight subjects with AERD plotted against quantity of LTB4 generated by fMLP-stimulated granulocytes from the same individuals. Percent suppression of fMLP-induced LTB4 by pretreatment with (FIG. 12B) PGE2 or (FIG. 12C) the EP2 receptor-specific agonist was plotted against percentages of platelet-adherent neutrophils in the peripheral blood of each subject. Effect size, determined with Pearson correlation coefficient, is denoted as an r value.\nPlatelet-rich plasma was removed from whole peripheral blood by centrifugation, washed, and resuspended at a concentration of 1×10^9 platelets/mL. […] Granulocytes were counted and a portion was stripped of adherent platelets by incubation with 0.05% trypsinethylenediaminetetraacetic acid for 15 minutes at 37° C.^17 Removal of adherent platelets was confirmed by cytofluorographic analysis of samples of the granulocytes before and after trypsinization. […]\nThe percentage of platelet-adherent neutrophils (as determined by CD61+ expression) in the whole blood of subjects with AERD was positively correlated with the amount of LTB4 generated by fMPL-stimulation of granulocytes from the same subjects (FIG. 12A). […]"}}}
{"smiles": "CCCCC/C=C\\C\\C=C/C=C/C=C/[C@@H]1O[C@H]1CCCC(=O)O", "note": "[LTA4, leukotriene (LT)A4]", "values": [{"measurement": "extracellular half-life", "setting": "[1]", "value": "less than 5 seconds"}]}
{"smiles": "CCCCC/C=C\\C\\C=C/C=C/C=C/[C@@H](SC[C@H](N)C(=O)O)[C@@H](O)CCCC(=O)O", "note": "[LTE4]", "values": [{"measurement": "pulmonary eosinophilia", "setting": "mice", "value": "markedly potentiates pulmonary eosinophilia"}, {"measurement": "adherence of platelets to granulocytes", "setting": "human platelets", "value": "do not directly cause human platelets to adhere to granulocytes"}]}
{"smiles": "CCCCC[C@H](O)/C=C/[C@H]1[C@H](O)CC(=O)[C@@H]1C/C=C\\CCCC(=O)O", "note": "[PGE2]", "values": [{"measurement": "suppression of leukotriene production (fMLP-induced LTB4)", "setting": "[2]", "value": "able to suppress leukotriene production"}]}
